Experimental data: patent US10286057B2, “Cyclic HIV-1 Env V3 glycopeptide immunogens” (DUKE UNIVERSITY, priority 2013, dated 2019)
Ends that are not written are not given here. * marks the point of attachment. Man3GlcNAc2 = CC(=O)N[C@@H]1[C@@H](O)[C@H](O[C@@H]2O[C@H](CO)[C@@H](O[C@@H]3O[C@H](CO[C@H]4O[C@H](CO)[C@@H](O)[C@H](O)[C@@H]4O)[C@@H](O)[C@H](O[C@H]4O[C@H](CO)[C@@H](O)[C@H](O)[C@@H]4O)[C@@H]3O)[C@H](O)[C@H]2NC(C)=O)[C@@H](CO)O[C@H]1*

Assays:
CH01-04 UCA = assay: SPR binding of V1V2 antigens to CH01 UCA; conditions: FIG. 1E, antigen 100 μg/ml
Experimental: (§1) FIGS. 1A-1E. Initial evaluation of synthetic V1V2 glycopeptide constructs. […] Surface plasmon reasonance (SPR) analysis of the interaction of V1V2 Man5GlcNAc2 (green), Man3GlcNAc2 (red), GlcNAc2 (blue), or aglycone (magenta) antigens with BnAbs PG9 (FIG. 1B), CH01 (FIG. 1C), or their respective umutated common ancestor (UCA) antibodies, PG9 UCA (FIG. 1D), and CH01-04 UCA (FIG. 1E). Concentration of antigens was 200 μg/ml for FIGS. […], and 100 μg/ml for FIGS. 1D and 1E, RU=response units
(§2) This is the first antigen known to bind to the PG9 UCA. […] Thus, these two V1V2 peptide-glycans have selective reactivity toward the V1V2 BnAbs, and react poorly or not at all with the CH58 mature and UCA antibodies. Therefore, these V1V2 peptide-glycan immunogens are prime candidates for selective induction of V1V2 BnAb lineages that are normally sub-dominant with infrequent UCAs.

CH58 UCA = assay: Reactivity of CH58 UCA toward V1V2 glycopeptides; format: binding; conditions: data not shown
Text: as §2

BnAb PG9 [1] = assay: SPR (Biacore) binding of V1V2 antigens to BnAb PG9; conditions: FIG. 1B, antigen 200 μg/ml
Experimental: as §1
(§3) Using chemical methods (see, for example, those referenced above), a set of homogeneous V1V2 glycopeptides bearing Man3GlcNAc2, Man5GlcNAc2, and GlcNAc2 N-glycans were synthesized de novo (FIG. 1A). […] Importantly, binding by the naked “aglycone” (FIGS. 1B,C) or the solitary protein-free Man3 and Man5 oligosaccharides (data not shown) was not observed.

RV144 mAb CH58 = assay: Reactivity of RV144 mAb CH58 toward V1V2 glycopeptides; format: binding; conditions: data not shown
Text: as §2

BnAb CH01 [2] = assay: SPR (Biacore) binding of V1V2 antigens to BnAb CH01; conditions: FIG. 1C, antigen 200 μg/ml
Experimental: as §1, §3

PGTs 125-128 and 130 = conditions: cited from earlier work
PGT128 [3] = assay: SPR binding to captured mAb PGT128; conditions: FIG. 13A
Text: (§4) Both PGT128 and PGT125 are dependent on Man9 glycans on position N332 and N301 (Pejchal et al., 2011), with N332 being the primary glycan.
(§5) Binding of V3 Bnab to Man9 glycan.

V1V2 mAb PGT145 = assay: Binding to V1V2 mAb PGT145; conditions: FIG. 13D
Text: (§6) FIG. 13A-D show binding of PGT mAbs to synthetic Man9GlcNAc2 glycan. Binding of V3 Bnab to Man9 glycan. […] Thus, the binding of Man9GlcnAc2 glycan was detected only for V3-glycan dependent PGT BNAbs.

2G12 = assay: Binding to mAb 2G12; conditions: FIG. 13C
Text: as §6
FIGS. 11-13 depict various experimental data showing that synthetic glycopeptides, such as for example the peptide of FIG. 1, can show differential binding to bnAbs vs non-neutralizing antibodies. […] Both 2G12 mAb and 2G12 UCA bound well to Man5 V1V2 dimer, indicating recognition of the glycan cluster on a V2 backbone.

PGT125 = assay: SPR binding to captured mAb PGT125; conditions: FIG. 13B
Text: as §4, §5

[4] = tested on: V3 loop non-neutralizing mAb 19b; assay: SPR binding to captured V3 loop non-neutralizing mAb 19b; conditions: FIG. 12 and FIG. 13D
Text: as §4, §5

BnAb PG9 [5] = conditions: from previous work; cited from earlier work
BnAb CH01 [6] = conditions: from previous work; cited from earlier work
PGT128 [7] = conditions: protein-free glycan; cited from earlier work
PG9 UCA = assay: SPR binding of V1V2 antigens to PG9 UCA; conditions: FIG. 1D, antigen 100 μg/ml
Experimental: as §1, §2

With “Man5 construct: V1V2 glycopeptide (SEQ ID NO: 9) bearing two N-linked Man5GlcNAc2 at N160 and N156 (ITDEVRN(Man5GlcNAc2)CSFN(Man5GlcNAc2)MTTELRDKKQKVHALFYKLDIVPI)” the “affinity for CH01 UCA” value (CH01-04 UCA) was “to a lesser extent”, the “reactivity of CH58 UCA” value (CH58 UCA) was “almost no affinity” and the “binding to BnAb PG9” value (BnAb PG9 [1]) was “bind”. The “reactivity of mAb CH58” value (RV144 mAb CH58) was “almost no affinity” and the “binding to BnAb CH01” value (BnAb CH01 [2]) was “bind”.
For `CC(=O)N[C@H]1[C@H](O[C@H]2[C@H](O)[C@@H](NC(C)=O)C(O)O[C@@H]2CO)O[C@H](CO)[C@@H](O[C@@H]2O[C@H](CO[C@H]3O[C@H](CO[C@H]4O[C@H](CO)[C@@H](O)[C@H](O)[C@@H]4O[C@H]4O[C@H](CO)[C@@H](O)[C@H](O)[C@@H]4O)[C@@H](O)[C@H](O[C@H]4O[C@H](CO)[C@@H](O)[C@H](O)[C@@H]4O[C@H]4O[C@H](CO)[C@@H](O)[C@H](O)[C@@H]4O)[C@@H]3O)[C@@H](O)[C@H](O[C@H]3O[C@H](CO)[C@@H](O)[C@H](O)[C@@H]3O[C@H]3O[C@H](CO)[C@@H](O)[C@H](O)[C@@H]3O[C@H]3O[C@H](CO)[C@@H](O)[C@H](O)[C@@H]3O)[C@@H]2O)[C@@H]1O` (stereo partly drawn) [Man9 glycan, Man9GlcNAc2], the “binding of PGTs 125-128 and 130 on glycan arrays” value (PGTs 125-128 and 130) is given as “showed binding”, the “affinity of PGT128 binding to free glycan” value (PGT128 [3]) is given as “affinities in μM” and the “binding to V1V2 mAb PGT145” value (V1V2 mAb PGT145) is given as “no binding”. The “2G12 binding to free glycan” value (2G12) was “only detected at the highest concentration”, the “affinity of PGT125 binding to free glycan” value (PGT125) was “affinities in μM” and the “binding to non-neutralizing V3 mAb 19b” value [4] was “no binding”.
In the case of “aglycone: V1V2 peptide of SEQ ID NO: 9 with zero glycans (ITDEVRNCSFNMTTELRDKKQKVHALFYKLDIVPI)”, the “binding to PG9” value (BnAb PG9 [5]) is listed as “did not show binding”, the “binding to CH01” value (BnAb CH01 [6]) is listed as “did not show binding” and the “binding to BnAb PG9” value (BnAb PG9 [1]) is listed as “not observed”. The “binding to BnAb CH01” value (BnAb CH01 [2]) was “not observed”.
In the case of `CC(=O)N[C@H]1[C@H](O[C@H]2[C@H](O)[C@@H](NC(C)=O)C(O)O[C@@H]2CO)O[C@H](CO)[C@@H](O[C@@H]2O[C@H](CO[C@H]3O[C@H](CO)[C@@H](O)[C@H](O)[C@@H]3O)[C@@H](O)[C@H](O[C@H]3O[C@H](CO)[C@@H](O)[C@H](O)[C@@H]3O)[C@@H]2O)[C@@H]1O` (stereo partly drawn) [Man3 oligosaccharide, Man3GlcNAc2], the “binding to BnAb PG9” value (BnAb PG9 [1]) is given as “not observed”, the “binding of PGT128 on glycan arrays” value (PGT128 [7]) is given as “not observed” and the “binding to BnAb CH01” value (BnAb CH01 [2]) is given as “not observed”.
In the case of `CC(=O)N[C@@H]1[C@@H](O)[C@H](O[C@@H]2O[C@H](CO)[C@@H](O[C@H]3O[C@H](CO[C@H]4O[C@H](CO[C@H]5O[C@H](CO)[C@@H](O)[C@H](O)[C@@H]5O[C@H]5O[C@H](CO)[C@@H](O)[C@H](O)[C@@H]5O)[C@@H](O)[C@H](O[C@H]5O[C@H](CO)[C@@H](O)[C@H](O)[C@@H]5O)[C@@H]4O)[C@@H](O)[C@H](O[C@H]4O[C@H](CO)[C@@H](O)[C@H](O)[C@@H]4O[C@H]4O[C@H](CO)[C@@H](O)[C@H](O)[C@@H]4O[C@H]4O[C@H](CO)[C@@H](O)[C@H](O)[C@@H]4O)[C@@H]3O)[C@H](O)[C@H]2NC(C)=O)[C@@H](CO)O[C@H]1O` [Man8, reference compound], the “binding of PGTs 125-128 and 130 on glycan arrays” value (PGTs 125-128 and 130) is listed as “showed binding”.
For “Man3 construct: V1V2 glycopeptide (SEQ ID NO: 9, AE.CM244/A244) bearing two N-linked Man3GlcNAc2 at N160 and N156 (ITDEVRN(Man3GlcNAc2)CSFN(Man3GlcNAc2)MTTELRDKKQKVHALFYKLDIVPI)”, the “affinity for CH01 UCA” value (CH01-04 UCA) was “significant affinity”, the “reactivity of CH58 UCA” value (CH58 UCA) was “only weak reactivity” and the “affinity for PG9 UCA” value (PG9 UCA) was “significant affinity”. For the same compound, the “binding to BnAb PG9” value (BnAb PG9 [1]) was “bind”, the “reactivity of mAb CH58” value (RV144 mAb CH58) was “only weak reactivity” and the “binding to BnAb CH01” value (BnAb CH01 [2]) was “bind”.
For Man5GlcNAc2 [Man5 oligosaccharide], the “binding to BnAb PG9” value (BnAb PG9 [1]) was “not observed” and the “binding to BnAb CH01” value (BnAb CH01 [2]) was “not observed”.
